Assay results: article PMC7967119, “Design and Synthesis of Non-Covalent Imidazo[1,2-a]quinoxaline-Based Inhibitors of EGFR and Their Anti-Cancer Assessment” (Molecules, 2021)
Like-named read-outs stand apart in the source and are kept apart here.

Columns and labels:
EGFR^WT = EGFR^WT (Homo sapiens, UniProt P00533); assay: EGFR inhibitory assay (Z-lyte kinase assay kit, Tyr 4 peptide, FRET-based); type: biochemical
Procedure: The test compounds were analyzed for EGFR inhibitory potential using z-lyte kinase assay kit–tyr 4 peptide assay kit (catalogue no. PV3193; Thermofisher, Mumbai, Maharashtra, India). The assay biochemically is FRET-based, which involves coupled enzyme format that relies on differential sensitivity of proteolytic cleavage of phosphorylated and non-phosphorylated peptides. The reaction proceeds in two steps, first involving the kinase reaction that is concerned with the transfer of phosphate group from ATP to single tyrosine residue, followed by development reaction, which involves site-protease role and cleaves non-phosphorylated peptide, allowing the disruption of FRET between donor and acceptor end of phosphorylated peptide, which facilitates deducing the emission ratio. The assay was performed per manufacturer protocol and per our published reports. […] Next, the assay master mix was prepared under ice-cold conditions by thawing and mixing kinase buffer (133 µL), kinase peptides (0.5 µL), phosphopeptide (0.5 µL) along with ATP (0.5 µL) solution. The master mix was added to testing compounds and further incubated for 1 h at room temperature and allowed the kinase reaction followed by development reaction to occur. After the stipulated period, reaction was stopped by addition of 5 µL stop solution to each reaction mixture.
The extent of phosphorylation was calculated by the following formula (Equation (1)):(1) % phosphorylation =1− (Emission ratio× F100%)− C100%/(C0%−C100%) + [Emission ratio (F100%−F0%)] where C0% = Average coumarin emission signal of the […]; F100% = Average Fluorescein emission signal of the 100% Phos. Control; F0% = Average Fluorescein emission signal of the 0% Phos. Control.

MDA-MB-231 cells = assay: H2DCFDA assay of ROS in MDA-MB-231; type: cell-based, human; conditions: sub-IC50 concentration, 48 h
MCF-7 (breast) cells = assay: H2DCFDA assay of ROS in MCF-7; type: cell-based; conditions: sub-IC50 concentration, 48 h
A549 cells = assay: Flow cytometric PI cell cycle analysis in A549; type: cell-based, human; conditions: A549, sub-IC50 concentration, 48 h
Procedure: The assays were performed following our previous published reports. Briefly, A549 cells were cultured in 100 mm dishes and maintained to attain at least 80% confluency. […] After the stipulated period, the remaining media were collected along with the cells (trypsinization) and were centrifuged (1200 rpm for 5 min) and washed two times using 1X PBS. Furthermore, the cells were raised to the concentration of 400 µL and were equally divided (5 × 10^4) in four aliquots. The first three aliquots were added with H2DCFDA (10 µM/100 µL), JC-1 dye (1 mM/mL) and Annexin V and PI (as per manufacturer protocol (Thermo Fisher: V13242, Maharashtra, India) to analyze detection of alteration in ROS, ∆ψm and mode of cell death, respectively. The cancer cells were incubated in the dark for 30 min at rt before analysis. Next, the fourth aliquot cells were fixed using chilled ethanol (70%) and incubated at −20 °C for 4 h to allow fixing. After 4 h, cells were centrifuged (2200 rpm for 10 min) and washed twice with 1X PBS. Furthermore, the cells were treated with RNase and PI was added and they were further incubated for 30 min in the dark before analysis. All the samples were analyzed using BD C6 flow cytometer using various FL channels.

[1] = system: MDA-MB-231 (breast cancer) cells; assay: MTT antiproliferative assay, MDA-MB-231; conditions: Homo sapiens, MDA-MB-231, 48 h, read-out: IC50 (μM) ± SEM, MDA-MB-231 (Breast Cancer)
[2] = system: HCT-116 WT (colon cancer) cells; assay: MTT antiproliferative assay, HCT-116 WT; conditions: Homo sapiens, HCT-116, 48 h, read-out: IC50 (μM) ± SEM, HCT-116 WT (Colon Cancer)
[3] = system: A549 (lung cancer) cells harboring EGFR^WT; assay: MTT antiproliferative assay, A549; conditions: Homo sapiens, A549, 48 h, read-out: IC50 (μM) ± SEM, A549 (Lung Cancer)
[4] = EGFR wild type, tested at 100, 250, 500 and 720 nM, triplicate, read-out: EGFR Inhibition IC50 (nM) ± SEM

Sequence of EGFR^WT (P00533 25-1210): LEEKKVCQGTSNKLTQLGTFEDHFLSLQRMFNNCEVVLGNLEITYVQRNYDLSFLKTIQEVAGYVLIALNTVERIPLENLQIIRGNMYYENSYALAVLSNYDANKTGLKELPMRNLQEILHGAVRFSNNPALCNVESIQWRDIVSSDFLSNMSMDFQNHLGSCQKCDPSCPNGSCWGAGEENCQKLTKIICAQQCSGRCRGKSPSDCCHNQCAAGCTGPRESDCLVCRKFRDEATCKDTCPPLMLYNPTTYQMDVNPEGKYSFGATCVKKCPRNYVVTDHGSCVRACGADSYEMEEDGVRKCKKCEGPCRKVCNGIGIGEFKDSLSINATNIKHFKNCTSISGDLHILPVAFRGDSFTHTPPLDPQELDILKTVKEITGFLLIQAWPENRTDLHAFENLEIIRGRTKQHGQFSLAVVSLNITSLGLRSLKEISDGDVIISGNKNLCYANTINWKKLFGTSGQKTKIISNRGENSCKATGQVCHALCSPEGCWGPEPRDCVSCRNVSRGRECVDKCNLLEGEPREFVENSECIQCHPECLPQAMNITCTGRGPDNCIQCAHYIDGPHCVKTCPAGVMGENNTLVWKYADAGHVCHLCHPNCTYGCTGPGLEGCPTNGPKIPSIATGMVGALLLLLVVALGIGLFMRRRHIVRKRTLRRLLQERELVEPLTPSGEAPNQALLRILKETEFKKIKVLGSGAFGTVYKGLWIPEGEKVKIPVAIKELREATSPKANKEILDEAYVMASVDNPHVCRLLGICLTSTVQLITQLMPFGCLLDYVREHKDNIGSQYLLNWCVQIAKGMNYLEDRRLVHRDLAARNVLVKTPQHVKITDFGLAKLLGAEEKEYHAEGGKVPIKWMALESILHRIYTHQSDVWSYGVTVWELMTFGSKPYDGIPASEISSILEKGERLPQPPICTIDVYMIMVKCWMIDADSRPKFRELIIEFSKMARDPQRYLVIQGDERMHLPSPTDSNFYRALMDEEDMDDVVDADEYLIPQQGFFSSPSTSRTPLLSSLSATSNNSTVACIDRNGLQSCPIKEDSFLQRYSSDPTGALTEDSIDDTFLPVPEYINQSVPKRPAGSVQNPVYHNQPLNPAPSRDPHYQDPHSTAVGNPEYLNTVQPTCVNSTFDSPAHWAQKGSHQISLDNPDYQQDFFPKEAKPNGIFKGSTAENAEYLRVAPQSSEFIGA

In the case of `COc1cc(-c2nc3ccccc3n3c(N)c(C#N)nc23)cc(OC)c1OC` [Compound 5a], the “EGFR^WT inhibitory activity in words” value (EGFR^WT; EGFR wild type) is reported as “poorly active or possessed no activity at all” and the IC50 (EGFR^WT; [4]) is reported as > 720 nM.

Compound `N#Cc1nc2c(-c3cccc([N+](=O)[O-])c3)nc3ccccc3n2c1N` [Compound 5b] has an IC50 (EGFR^WT; [4]) of 244.45 ± 0.032 nM.

With `CN(C)c1ccc(-c2nc3ccccc3n3c(N)c(C#N)nc23)cc1` [Compound 5c, 1-Amino-4-(4-(dimethylamino)phenyl)imidazo[1,2-a]quinoxaline-2-carbonitrile] the melting point was 169 to 171 °C, the “EGFR^WT inhibitory activity in words” value (EGFR^WT; EGFR wild type) was “poorly active or possessed no activity at all” and the IC50 (EGFR^WT; [4]) was > 720 nM.

With `CC(C)c1ccc(-c2nc3ccccc3n3c(N)c(C#N)nc23)cc1` [Compound 5d, 1-Amino-4-(4-isopropylphenyl)imidazo[1,2-a]quinoxaline-2-carbonitrile] the melting point was 166 to 168 °C, the “EGFR^WT inhibitory activity in words” value (EGFR^WT; EGFR wild type) was “poorly active or possessed no activity at all” and the IC50 (EGFR^WT; [4]) was > 720 nM.

In the case of `COc1ccc(OC)c(/C=N/c2c(C#N)nc3c(-c4cc(OC)ccc4OC)nc4ccccc4n23)c1` [Compound 6a], the IC50 (EGFR^WT; [4]) is reported as 429.81 ± 0.018 nM.

With `COc1cc(/C=N/c2c(C#N)nc3c(-c4cc(OC)c(OC)c(OC)c4)nc4ccccc4n23)cc(OC)c1OC` [Compound 6b, (E)-1-((3,4,5-Trimethoxybenzylidene)amino)-4-(3,4,5-trimethoxyphenyl)imidazo[1,2-a]quinoxaline-2-carbonitrile] the “Percentage decrease in ROS, MDA-MB-231” value (MDA-MB-231 cells) was “marginal”, the “Percentage decrease in ROS, MCF-7” value (MCF-7 (breast) cells) was “marginal” and the “Cell cycle analysis G1 (%)” value (A549 cells) was 34.51%. The IC50 [1] was 4.1 ± 0.031 µM, the IC50 [2] was 5.1 ± 0.029 µM and the IC50 (EGFR^WT; [4]) was 211.22 ± 0.027 nM.

In the case of `COc1ccc(/C=N/c2c(C#N)nc3c(-c4ccc(OC)c(OC)c4)nc4ccccc4n23)cc1OC` [Compound 6c, (E)-1-((3,4-Dimethoxybenzylidene)amino)-4-(3,4-dimethoxy-phenyl)imidazo[1,2-a]quinoxaline-2-carbonitrile], the melting point is reported as 170 to 172 °C, the “EGFR^WT inhibitory activity in words” value (EGFR^WT; EGFR wild type) is reported as “poorly active or possessed no activity at all” and the IC50 (EGFR^WT; [4]) is reported as > 720 nM.

In the case of `N#Cc1nc2c(-c3ccc(Cl)cc3)nc3ccccc3n2c1/N=C/c1ccc(Cl)cc1` [Compound 6d], the “EGFR^WT inhibitory activity in words” value (EGFR^WT; EGFR wild type) is reported as “poorly active or possessed no activity at all” and the IC50 (EGFR^WT; [4]) is reported as > 720 nM.

With `COc1ccc(/C=N/c2c(C#N)nc3n2-c2ccccc2NC3c2ccc(OC)c(OC)c2)cc1OC` (stereo not shown) [Compound 7a] the IC50 (EGFR^WT; [4]) was > 720 nM.

For `N#Cc1nc2n(c1/N=C/c1ccccc1[N+](=O)[O-])-c1ccccc1NC2c1ccccc1[N+](=O)[O-]` (stereo not shown) [Compound 7b], the IC50 (EGFR^WT; [4]) was > 720 nM.

In the case of `N#Cc1nc2n(c1/N=C/c1ccc(O)c(O)c1)-c1ccccc1NC2c1ccc(O)c(O)c1` (stereo not shown) [Compound 7c], the IC50 (EGFR^WT; [4]) is reported as 620.17 ± 0.019 nM.

With `COc1ccc(OC)c(/C=N/c2c(C#N)nc3n2-c2ccccc2NC3c2cc(OC)ccc2OC)c1` (stereo not shown) [Compound 7d] the IC50 (EGFR^WT; [4]) was 652.56 ± 0.024 nM.

In the case of `N#Cc1nc2n(c1/N=C/c1ccccc1Br)-c1ccccc1NC2c1ccccc1Br` (stereo not shown) [Compound 7e], the IC50 (EGFR^WT; [4]) is reported as 665.89 ± 0.029 nM.

Compound `N#Cc1nc2n(c1/N=C/c1ccco1)-c1ccccc1NC2c1ccco1` (stereo not shown) [Compound 7f] has an IC50 (EGFR^WT; [4]) of 232.4 ± 0.031 nM.

`N#Cc1nc2n(c1/N=C/c1ccc([N+](=O)[O-])cc1[N+](=O)[O-])-c1ccccc1NC2c1ccc([N+](=O)[O-])cc1[N+](=O)[O-]` (stereo not shown) [Compound 7g] gave an IC50 (EGFR^WT; [4]) of 476.87 ± 0.022 nM.

For `N#Cc1nc2n(c1/N=C/c1ccccc1F)-c1ccccc1NC2c1ccccc1F` (stereo not shown) [Compound 7h], the IC50 [3] was 4.09 ± 0.024 µM, the IC50 [1] was 11.2 ± 0.022 µM and the IC50 [2] was < 1 µM. The IC50 (EGFR^WT; [4]) was 222.21 ± 0.028 nM.

In the case of `COc1cc(/C=N/c2c(C#N)nc3n2-c2ccccc2NC3c2cc(OC)c(OC)c(OC)c2)cc(OC)c1OC` (stereo not shown) [Compound 7i], the “EGFR^WT inhibitory activity in words” value (EGFR^WT; EGFR wild type) is reported as “poorly active or possessed no activity at all” and the IC50 (EGFR^WT; [4]) is reported as 613.37 ± 0.024 nM.

For `N#Cc1nc2n(c1/N=C/c1ccc([N+](=O)[O-])cc1)-c1ccccc1NC2c1ccc([N+](=O)[O-])cc1` (stereo not shown) [Compound 7j], the IC50 [3] was 8.75 ± 0.028 µM, the IC50 [1] was 2.2 ± 0.026 µM and the IC50 [2] was < 1 µM. For the same compound, the IC50 (EGFR^WT) was 193.18 ± 0.021 nM.

For `N#Cc1ccc(/C=N/c2c(C#N)nc3n2-c2ccccc2NC3c2ccc(C#N)cc2)cc1` (stereo not shown) [Compound 7k, (E)-1-((4-Cyanobenzylidene)amino)-4-(4-cyanophenyl)-4,5-dihydroimidazo[1,2-a]quinoxaline-2-carbonitrile], the melting point was 173 to 175 °C, the “EGFR^WT inhibitory activity in words” value (EGFR^WT; EGFR wild type) was “poorly active or possessed no activity at all” and the IC50 (EGFR^WT; [4]) was > 720 nM.

With `N#Cc1ccc(C2Nc3ccccc3-n3c2nc(C#N)c3N)cc1` (stereo not shown) [Compound 8a] the IC50 (EGFR^WT; [4]) was > 720 nM.

For `N#Cc1nc2n(c1N)-c1ccccc1NC2c1cccc([N+](=O)[O-])c1` (stereo not shown) [Compound 8b], the IC50 (EGFR^WT; [4]) was > 720 nM.

With `N#Cc1nc2n(c1N)-c1ccccc1NC2c1ccccc1[N+](=O)[O-]` (stereo not shown) [Compound 8c, 1-Amino-4-(2-nitrophenyl)-4,5-dihydroimidazo[1,2-a]quinoxaline-2-carbonitrile] the melting point was 165 to 167 °C and the IC50 (EGFR^WT; [4]) was > 720 nM.

In the case of `C/C(=N\c1c(C#N)nc2n1-c1ccccc1NC2(C)c1ccc(Cl)cc1)c1ccc(Cl)cc1` (stereo not shown) [Compound 9a], the IC50 [3] is reported as 6.63 ± 0.031 µM, the IC50 [1] is reported as 14.1 ± 0.021 µM and the IC50 [2] is reported as > 25 µM. For the same compound, the IC50 (EGFR^WT; [4]) was 223.32 ± 0.031 nM.

Work on `C/C(=N\c1c(C#N)nc2n1-c1ccccc1NC2(C)c1cccs1)c1cccs1` (stereo not shown) [Compound 9b] yielded an IC50 (EGFR^WT; [4]) of 244.51 ± 0.021 nM.

In the case of `COc1ccc(/C(C)=N/c2c(C#N)nc3n2-c2ccccc2NC3(C)c2ccc(OC)c(OC)c2)cc1OC` (stereo not shown) [Compound 9c], the IC50 [3] is reported as 12.06 ± 0.021 µM, the IC50 [1] is reported as 13.6 ± 0.028 µM and the IC50 [2] is reported as 7.9 ± 0.027 µM. The IC50 (EGFR^WT; [4]) was 221.53 ± 0.028 nM.

`CC1(c2cccc([N+](=O)[O-])c2)Nc2ccccc2-n2c1nc(C#N)c2N` (stereo not shown) [Compound 10a] showed an IC50 (EGFR^WT; [4]) of 247.32 ± 0.021 nM.

Work on `N#Cc1nc2n(c1N)-c1ccccc1NC2(C(=O)c1ccccc1)c1ccccc1` (stereo not shown) [Compound 10c] yielded an IC50 (EGFR^WT; [4]) of 716.32 ± 0.026 nM.

`CC1(C)Nc2ccccc2-n2c1nc(C#N)c2N` [Compound 10d] gave an IC50 (EGFR^WT; [4]) of 624.57 ± 0.024 nM.

For `N#Cc1nc2n(c1N)-c1ccccc1N1C(=O)CCC21` (stereo not shown) [Compound 11], the “EGFR^WT inhibitory activity in words” value (EGFR^WT; EGFR wild type) was “poorly active or possessed no activity at all” and the IC50 (EGFR^WT; [4]) was 669.39 ± 0.019 nM.

For `C#Cc1cccc(Nc2ncnc3cc(OCCOC)c(OCCOC)cc23)c1` [Erlotinib, erlotinib, reference compound], the IC50 [1] was 3.33 ± 0.018 µM and the IC50 [2] was 2.98 ± 0.023 µM.
